Among the data in patent publication US20240246992A1, “MACROCYCLIC LRRK2 KINASE INHIBITORS” (LES LABORATOIRES SERVIER, priority 2021, published 2024) are IC50 values, retold here.

Each structure is given as a SMILES string.

What is called IC50 is the concentration needed to halve the response being measured.

Chain of human recombinant LRRK2 protein (Q5S007 whole entry): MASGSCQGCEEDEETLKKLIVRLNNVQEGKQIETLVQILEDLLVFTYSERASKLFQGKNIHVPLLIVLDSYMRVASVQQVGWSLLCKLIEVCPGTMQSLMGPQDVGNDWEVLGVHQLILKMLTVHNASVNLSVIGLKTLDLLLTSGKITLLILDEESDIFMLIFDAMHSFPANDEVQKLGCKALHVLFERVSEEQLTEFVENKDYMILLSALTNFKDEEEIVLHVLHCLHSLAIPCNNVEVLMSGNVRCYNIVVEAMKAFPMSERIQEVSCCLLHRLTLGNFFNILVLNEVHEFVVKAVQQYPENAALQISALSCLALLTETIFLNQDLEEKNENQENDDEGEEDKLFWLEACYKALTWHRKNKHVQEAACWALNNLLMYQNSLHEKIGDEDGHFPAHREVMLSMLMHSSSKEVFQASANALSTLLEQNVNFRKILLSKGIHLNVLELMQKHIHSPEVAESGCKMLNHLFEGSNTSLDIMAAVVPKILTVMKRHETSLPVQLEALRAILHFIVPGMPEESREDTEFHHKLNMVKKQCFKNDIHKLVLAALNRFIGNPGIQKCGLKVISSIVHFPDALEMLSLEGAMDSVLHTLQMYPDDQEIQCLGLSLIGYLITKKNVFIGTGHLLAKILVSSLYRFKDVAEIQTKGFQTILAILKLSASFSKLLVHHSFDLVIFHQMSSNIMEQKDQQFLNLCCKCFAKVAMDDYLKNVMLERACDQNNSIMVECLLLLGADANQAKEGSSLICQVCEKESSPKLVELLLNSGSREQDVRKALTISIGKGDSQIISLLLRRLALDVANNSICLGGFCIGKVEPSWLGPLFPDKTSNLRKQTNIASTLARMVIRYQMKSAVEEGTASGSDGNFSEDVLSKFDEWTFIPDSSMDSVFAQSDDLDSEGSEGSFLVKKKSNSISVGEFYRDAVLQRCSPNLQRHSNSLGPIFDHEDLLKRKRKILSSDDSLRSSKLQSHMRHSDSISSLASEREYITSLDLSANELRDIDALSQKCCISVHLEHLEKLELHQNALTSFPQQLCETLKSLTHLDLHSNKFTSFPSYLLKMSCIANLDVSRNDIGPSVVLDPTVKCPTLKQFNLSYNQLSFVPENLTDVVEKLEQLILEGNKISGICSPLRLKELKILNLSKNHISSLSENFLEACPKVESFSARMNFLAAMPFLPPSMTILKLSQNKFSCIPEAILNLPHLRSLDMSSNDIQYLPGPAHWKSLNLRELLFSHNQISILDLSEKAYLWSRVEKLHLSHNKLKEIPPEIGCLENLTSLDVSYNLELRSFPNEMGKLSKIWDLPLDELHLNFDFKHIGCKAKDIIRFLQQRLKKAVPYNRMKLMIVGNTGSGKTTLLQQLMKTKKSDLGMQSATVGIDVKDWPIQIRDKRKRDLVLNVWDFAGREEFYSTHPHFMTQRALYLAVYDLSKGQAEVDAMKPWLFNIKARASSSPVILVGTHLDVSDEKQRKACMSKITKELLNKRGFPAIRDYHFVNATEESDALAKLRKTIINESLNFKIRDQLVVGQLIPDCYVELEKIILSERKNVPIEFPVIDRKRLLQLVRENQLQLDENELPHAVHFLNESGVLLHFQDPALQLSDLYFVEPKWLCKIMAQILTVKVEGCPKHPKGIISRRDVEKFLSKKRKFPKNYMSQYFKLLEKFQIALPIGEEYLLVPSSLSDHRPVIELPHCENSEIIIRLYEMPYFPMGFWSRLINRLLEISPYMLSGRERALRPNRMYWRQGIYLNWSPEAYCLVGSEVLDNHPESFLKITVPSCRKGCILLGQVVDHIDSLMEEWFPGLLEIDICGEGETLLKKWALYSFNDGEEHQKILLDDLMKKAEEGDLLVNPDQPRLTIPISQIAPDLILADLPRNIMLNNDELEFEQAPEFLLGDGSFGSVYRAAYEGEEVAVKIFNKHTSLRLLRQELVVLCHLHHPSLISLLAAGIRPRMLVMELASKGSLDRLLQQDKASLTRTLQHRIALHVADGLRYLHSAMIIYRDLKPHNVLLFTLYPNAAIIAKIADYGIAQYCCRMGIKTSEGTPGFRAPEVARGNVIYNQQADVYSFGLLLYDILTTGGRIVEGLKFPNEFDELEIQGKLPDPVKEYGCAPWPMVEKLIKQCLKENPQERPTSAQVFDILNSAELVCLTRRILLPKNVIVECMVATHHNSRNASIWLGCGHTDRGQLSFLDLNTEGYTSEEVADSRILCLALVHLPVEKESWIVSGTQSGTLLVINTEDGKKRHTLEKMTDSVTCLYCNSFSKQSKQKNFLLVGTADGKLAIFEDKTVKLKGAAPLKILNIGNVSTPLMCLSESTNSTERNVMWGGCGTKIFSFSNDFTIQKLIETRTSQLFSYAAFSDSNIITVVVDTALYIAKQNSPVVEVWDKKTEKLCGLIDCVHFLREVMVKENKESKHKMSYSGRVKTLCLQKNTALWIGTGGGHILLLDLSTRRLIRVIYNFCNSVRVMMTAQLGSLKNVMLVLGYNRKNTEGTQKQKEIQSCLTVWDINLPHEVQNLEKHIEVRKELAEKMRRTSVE

The test has as its target human recombinant LRRK2 protein (Homo sapiens, UniProt Q5S007). Description: LRRK2 kinase activity assay (ADP-Glo, LRRKtide peptide). It is filed as biochemical. The following applies: human recombinant LRRK2 wt, LRRKtide peptide and ATP, 1 h at 37° C. Summed up:
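ADP-Glo luminescence read-out of a peptide assay: compound, ATP and LRRKtide substrate combined with recombinant human LRRK2 and incubated at 37 °C for 1 h. Ten-point data, N=2, curve-fitted to IC50.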
On the technique in general: ADP-Glo turns the ADP formed in a reaction into a luminescent signal.
Consider `CC1Oc2cc(cc(N3CCOCC3)c2)-c2n[nH]c3ccc(cc23)OCCCNC1=O` (stereo not shown) [Example 176, 8-methyl-4-(morpholin-4-yl)-7,14-dioxa-10,19,20-triazatetracyclo[13.5.2.1^2,6.0^18,21]tricosa-1(20),2,4,6(23),15,17,21-heptaen-9-one], for which the half-inhibitory concentration (IC50) is below 10 nM. For `C[C@@H]1CCNC(=O)CCn2cc(cn2)-c2n[nH]c3ccc(cc23)O1` [Example 179, (12R)-12-methyl-13-oxa-4,5,9,18,19-pentaazatetracyclo [12.5.2.1^2,5.0^17,20] docosa-1(19),2(22),3,14(21),15,17(20)-hexaen-8-one] the value was below 10 nM. Take `C[C@@H]1CCNCCCn2cc(cn2)-c2n[nH]c3ccc(cc23)O1` [Example 180, (12R)-12-methyl-13-oxa-4,5,9,18,19-pentaazatetracyclo [12.5.2.1^2,5.0^17,20]docosa-1(19),2(22),3,14(21),15,17(20)-hexaene]: the 50% inhibitory concentration (IC50) is below 100 nM. As for `O=C1CCn2ncc(n2)-c2n[nH]c3ccc(cc23)OCCCN1` [Example 181, 13-oxa-4,5,9,18,19,22-hexaazatetracyclo[12.5.2.1^2,5.0^17,20] docosa-1(19),2(22),3,14(21),15,17(20)-hexaen-8-one], the IC50 was below 10 nM. `c1cc2[nH]nc3c2cc1OCCCNCCCn1ncc-3n1` [Example 182, 13-oxa-4,5,9,18,19,22-hexaazatetracyclo[12.5.2.1^2,5.0^17,20] docosa-1(19),2(22),3,14(21),15,17(20)-hexaene]: the IC50 is below 10 nM. For `C[C@@H]1NC(=O)COc2cccc(c2)-c2n[nH]c3ccc(cc23)OC[C@H]1F` [Example 183, (11S,12S)-12-fluoro-11-methyl-7,14-dioxa-10,19,20-triazatetracyclo[13.5.2.1^2,6.0^18,21]tricosa-1(20),2,4,6(23),15,17,21-heptaen-9-one] the value was below 100 nM; for `C[C@@H]1NCCOc2cccc(c2)-c2n[nH]c3ccc(cc23)OC[C@H]1F` [Example 184, (11S,12S)-12-fluoro-11-methyl-7,14-dioxa-10,19,20-triazatetracyclo[13.5.2.1^2,6.0^18,21]tricosa-1(20),2,4,6(23),15,17,21-heptaene], below 100 nM; for `O=C1COc2cc(cc(C(F)(F)F)c2)-c2n[nH]c3ccc(cc23)OCCCN1` [Example 185, 4-(trifluoromethyl)-7,14-dioxa-10,19,20-triazatetracyclo [13.5.2.1^2,6.0^18,21]tricosa-1(20),2,4,6(23),15,17,21-heptaen-9-one], below 10 nM. For the compound `FC(F)(F)c1cc2cc(c1)-c1n[nH]c3ccc(cc13)OCCCNCCO2` [Example 186, 4-(trifluoromethyl)-7,14-dioxa-10,19,20-triazatetracyclo [13.5.2.1^2,6.0^18,21]tricosa-1(20),2,4,6(23),15,17,21-heptaene], the IC50 was below 10 nM. On to `Cc1cc2[nH]nc3c2cc1OCCCNC(=O)COc1cncc-3c1` [Example 187, 16-methyl-7,14-dioxa-4,10,19,20-tetraazatetracyclo[13.5.2.1^2,6.0^18,21]tricosa-1(20),2(23),3,5,15(22),16,18(21)-heptaen-9-one], for which the IC50 is below 100 nM. As to `Cc1cc2[nH]nc3c2cc1OCCCNCCOc1cncc-3c1` [Example 188, 16-methyl-7,14-dioxa-4,10,19,20-tetraazatetracyclo[13.5.2.1^2,6.0^18,21]tricosa-1(20),2(23),3,5,15(22),16,18(21)-heptaene], the IC50 is below 10 nM. Take `CN1CCCNc2ccc3[nH]nc(c3c2)-c2cncc(c2)OCC1=O` [Example 190, 10-methyl-7-oxa-4,10,14,19,20-pentaazatetracyclo[13.5.2.1^2,6.0^18,21]tricosa-1(20),2,4,6(23),15,17,21-heptaen-9-one]: the IC50 was below 100 nM.

As to `CN1CCCOc2ccc3[nH]nc(c3c2)-c2cc(C#N)cc(c2)OCC1=O` [Example 191, 10-methyl-9-oxo-7,14-dioxa-10,19,20-triazatetracyclo [13.5.2.1^2,6.0^18,21]tricosa-1(20),2,4,6(23),15,17,21-heptaene-4-carbonitrile], the IC50 is below 100 nM. Take `O=C1COc2cccc(c2)-c2n[nH]c3ccc(cc23)OCCN1` [Example 192, 7,13-dioxa-10,18,19-triazatetracyclo[12.5.2.1^2,6.0^17,20]docosa-1(19),2(22),3,5,14(21),15,17(20)-heptaen-9-one]: the IC50 is below 1000 nM. For `O=C1COc2cncc(n2)-c2n[nH]c3ccc(cc23)OCCCN1` [Example 193, 7,14-dioxa-4,10,19,20,23-pentaazatetracyclo[13.5.2.1^2,6.0^18,21]tricosa-1(20),2(23),3,5,15(22),16,18(21)-heptaen-9-one], the IC50 was below 10 nM. As for `CN1CCCOc2ccc3[nH]nc(c3c2)-c2cc(ccn2)OCC1=O` [Example 194, 10-methyl-7,14-dioxa-3,10,19,20-tetraazatetracyclo[13.5.2.1^2,6.0^18,21]tricosa-1(20),2(23),3,5,15(22),16,18(21)-heptaen-9-one], the IC50 was below 1000 nM. On to `O=C1COc2cc(F)cc(c2)-c2n[nH]c3ccc(cc23)OCCCN1` [Example 195, 4-fluoro-7,14-dioxa-10,19,20-triazatetracyclo[13.5.2.1^2,6.0^18,21]tricosa-1(20),2(23),3,5,15(22),16,18(21)-heptaen-9-one], for which the IC50 is below 10 nM. For `O=C1COc2nccc(n2)-c2n[nH]c3ccc(cc23)OCCCN1` [Example 196, 7,14-dioxa-5,10,19,20,23-pentaazatetracyclo[13.5.2.1^2,6.0^18,21]tricosa-1(20),2(23),3,5,15(22),16,18(21)-heptaen-9-one] the value was below 10 nM; for `CN1CCCOc2ccc3[nH]nc(c3c2)-c2cncc(c2)OC(C)(C)C1=O` [Example 197, 8,8,10-trimethyl-7,14-dioxa-4,10,19,20-tetraazatetracyclo[13.5.2.1^2,6.0^18,21]tricosa-1(20),2(23),3,5,15(22),16,18(21)-heptaen-9-one], below 100 nM. Consider `CN1CCCOc2ccc3[nH]nc(c3c2)-c2cncc(c2)OCCC1=O` [Example 198, 11-methyl-7,15-dioxa-4,11,20,21-tetraazatetracyclo [14.5.2.1^2,6.0^19,22] tetracosa-1(21),2,4,6(24),16,18,22-heptaen-10-one], for which the IC50 was below 1000 nM. Regarding `O=C1COc2cncc(c2)-c2n[nH]c3ccc(cc23)OCCN1` [Example 199, 7,13-dioxa-4,10,18,19-tetraazatetracyclo[12.5.2.1^2,6.0^17,20] docosa-1(19),2(22),3,5,14(21),15,17(20)-heptaen-9-one], the IC50 is below 100 nM.

Regarding `CN1CCCOc2ccc3[nH]nc(c3c2)-c2cc(cnc2F)OCC1=O` [Example 200, 3-fluoro-10-methyl-7,14-dioxa-4,10,19,20-tetraazatetracyclo[13.5.2.1^2,6.0^18,21]tricosa-1(20),2,4,6(23),15(22),16,18(21)-heptaen-9-one], the IC50 is below 1000 nM. Turning to `CC1(C)Oc2cncc(c2)-c2n[nH]c3ccc(cc23)OCCCNC1=O` [Example 201, 8,8-dimethyl-7,14-dioxa-4,10,19,20-tetraazatetracyclo [13.5.2.1^2,6.0^18,21]tricosa-1(20),2(23),3,5,15,17,21-heptaen-9-one], the IC50 was below 10 nM. For `O=C1COc2cncc(c2)-c2n[nH]c3ccc(cc23)OCC(F)(F)CN1` [Example 202, 12,12-difluoro-7,14-dioxa-4,10,19,20-tetraazatetracyclo [13.5.2.1^2,6.0^18,21]tricosa-1(20),2,4,6(23),15,17,21-heptaen-9-one] the value was below 10 nM; for `O=C1COc2cc(Br)cc(c2)-c2n[nH]c3ccc(cc23)OCCCN1` [Example 203, 4-bromo-7,14-dioxa-10,19,20-triazatetracyclo[13.5.2.1^2,6.0^18,21]tricosa-1(20),2(23),3,5,15,17,21-heptaen-9-one], below 10 nM; for `O=C1COc2cc(cc(N3CCCCC3)c2)-c2n[nH]c3ccc(cc23)OCCCN1` [Example 204, 4-(piperidin-1-yl)-7,14-dioxa-10,19,20-triazatetracyclo [13.5.2.1^2,6.0^18,21]tricosa-1(20),2(23),3,5,15,17,21-heptaen-9-one], below 10 nM.

As to `O=C1COc2cc(cc(N3CCCC3)c2)-c2n[nH]c3ccc(cc23)OCCCN1` [Example 205, 4-(pyrrolidin-1-yl)-7,14-dioxa-10,19,20-triazatetracyclo [13.5.2.1^2,6.0^18,21]tricosa-1(20),2(23),3,5,15,17,21-heptaen-9-one], the IC50 is below 10 nM. For the compound `O=C1COc2cc(cc(N3CCC(F)(F)C3)c2)-c2n[nH]c3ccc(cc23)OCCCN1` [Example 206, 4-(3,3-difluoropyrrolidin-1-yl)-7,14-dioxa-10,19,20-triazatetracyclo[13.5.2.1^2,6.0^18,21]tricosa-1(20),2(23),3,5,15,17,21-heptaen-9-one], the IC50 was below 10 nM.

In the case of `O=C1COc2cc(cc(N3CCOCC3)c2)-c2n[nH]c3ccc(cc23)OCCCN1` [Example 207, 4-(morpholin-4-yl)-7,14-dioxa-10,19,20-triazatetracyclo [13.5.2.1^2,6.0^18,21]tricosa-1(20),2(23),3,5,15,17,21-heptaen-9-one], the half-inhibitory concentration (IC50) is below 10 nM.

As for `O=C1COc2cc(C3=CCOCC3)cc(c2)-c2n[nH]c3ccc(cc23)OCCCN1` [Example 208, 4-(3,6-dihydro-2H-pyran-4-yl)-7,14-dioxa-10,19,20-triazatetracyclo[13.5.2.1^2,6.0^18,21]tricosa-1(20),2(23),3,5,15,17,21-heptaen-9-one], the IC50 was below 10 nM. For `O=C1COc2cc(cc(N3CCN(CC4CC4)CC3)c2)-c2n[nH]c3ccc(cc23)OCCCN1` [Example 209, 4-[4-(cyclopropylmethyl)piperazin-1-yl]-7,14-dioxa-10,19,20-triazatetracyclo[13.5.2.1^2,6.0^18,21]tricosa-1(20),2(23),3,5,15,17,21-heptaen-9-one] the value was below 10 nM.
